# Measured values published in paper PMC7845594, “Novel Immune Modulators Enhance Caenorhabditis elegans Resistance to Multiple Pathogens” (mSphere, 2021).
# Tested on: C. elegans host defense pathway genes
# Assay: nanoString expression of 115 immune- and stress-responsive genes
# Settings: 100 μM LK molecules, 16 h
# Summary of the method: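 Wild-type young adult C. elegans (2,000 per condition) exposed to 100 μM LK molecules or DMSO control in S Basal medium for 16 h. RNA purified and expression of 115 immune- and stress-responsive genes quantified by nanoString; two biological replicates per condition.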
compound,measurement,value
COC(=O)/C=C/C(=O)Nc1ccccc1 [LK32],"B0024.4 expression, induction",2.44 fold
same,"C02B4.2 nhr-17 expression, induction",5.68 fold
same,"C06B3.7 expression, induction",4.23 fold
same,"C07G3.2 irg-1 expression, induction",2.20 fold
same,"C12C8.1 hsp-70 expression, induction",3.77 fold
same,"C15F1.7 sod-1 expression, induction",4.46 fold
same,"C29F7.2 expression, induction",2.80 fold
same,"C31A11.5 oac-6 expression, induction",4.01 fold
same,"C32D5.12 expression, induction",3.70 fold
same,"C32H11.1 expression, induction",1.40 fold
same,"C32H11.3 expression, induction",2.32 fold
same,"C34G6.4 pgp-2 expression, induction",1.90 fold
same,"C37C3.10 expression, induction",4.08 fold
same,"C37H5.8 hsp-6 expression, induction",3.96 fold
same,"C49G7.5 irg-2 expression, induction",4.83 fold
same,"F08F8.5 numr-1 expression, induction",8.48 fold
same,"F08H9.4 expression, induction",1.80 fold
same,"F14F9.3 expression, induction",4.80 fold
same,"F22B5.4 expression, induction",3.08 fold
same,"F22H10.2 expression, induction",3.76 fold
same,"F26A3.4 expression, induction",4.23 fold
same,"F35E8.11 cdr-1 expression, induction",3.13 fold
same,"F35G2.4 phy-2 expression, induction",4.53 fold
same,"F37B12.2 gcs-1 expression, induction",7.02 fold
same,"F43E2.8 hsp-4 expression, induction",2.75 fold
same,"F44E5.5 expression, induction",3.34 fold
same,"F49F1.6 expression, induction",2.28 fold
same,"F49F1.7 expression, induction",2.35 fold
same,"F49H6.13 expression, induction",6.69 fold
same,"F54B8.4 expression, induction",2.74 fold
same,"F55G11.2 expression, induction",3.21 fold
same,"F59A7.1 clec-206 expression, induction",3.26 fold
same,"F59B10.4 expression, induction",3.51 fold
same,"H12D21.1 nspa-1 expression, induction",52.37 fold
same,"H23N18.1 ugt-13 expression, induction",8.50 fold
same,"H23N18.3 ugt-8 expression, induction",18.61 fold
same,"K05B2.4 expression, induction",1.82 fold
same,"K08F4.7 gst-4 expression, induction",18.20 fold
same,"K09A9.1 nipi-3 expression, induction",4.75 fold
same,"K10D11.2 expression, induction",2.89 fold
same,"K10G4.3 expression, induction",2.75 fold
same,"R03D7.6 gst-5 expression, induction",46.52 fold
same,"R08H2.1 dhs-23 expression, induction",2.72 fold
same,"R10E8.3 expression, induction",7.07 fold
same,"T19D12.3 expression, induction",9.28 fold
same,"T19H12.1 ugt-9 expression, induction",14.98 fold
same,"T21E8.1 pgp-6 expression, induction",2.05 fold
same,"T22B7.3 expression, induction",6.13 fold
same,"T24C4.4 expression, induction",3.75 fold
same,"T24E12.5 expression, induction",2.28 fold
same,"T27E4.3 hsp-16.48 expression, induction",5.22 fold
same,"T27E4.8 hsp-16.1 expression, induction",4.29 fold
same,"T27F6.8 expression, induction",5.12 fold
same,"T28C12.4 expression, induction",9.85 fold
same,"W02D9.10 expression, induction",4.35 fold
same,"Y22D7AL.5 hsp-60 expression, induction",4.03 fold
same,"Y38E10A.15 nspe-7 expression, induction",2.18 fold
same,"Y46H3A.2 hsp-16.41 expression, induction",4.09 fold
same,"Y46H3A.3 hsp-16.2 expression, induction",4.04 fold
same,"Y56A3A.33 expression, induction",4.81 fold
same,"Y58A7A.5 expression, induction",8.58 fold
same,"ZC376.7 atfs-1 expression, induction",5.61 fold
same,"ZC443.6 ugt-16 expression, induction",3.20 fold
same,"ZK697.6 gst-21 expression, induction",2.57 fold
CN(C)/N=N/c1ccc(-c2cn(Cc3ccccc3)cn2)cc1 [LK38],"B0024.4 expression, induction",3.17 fold
same,"C02B4.2 nhr-17 expression, induction",1.71 fold
same,"C06B3.7 expression, induction",1.11 fold
same,"C07G3.2 irg-1 expression, induction",2.65 fold
same,"C12C8.1 hsp-70 expression, induction",0.53 fold
same,"C15F1.7 sod-1 expression, induction",1.43 fold
same,"C29F7.2 expression, induction",32.57 fold
same,"C31A11.5 oac-6 expression, induction",9.73 fold
same,"C32D5.12 expression, induction",3.71 fold
same,"C32H11.1 expression, induction",18.31 fold
same,"C32H11.3 expression, induction",11.99 fold
same,"C34G6.4 pgp-2 expression, induction",4.68 fold
same,"C37C3.10 expression, induction",2.39 fold
same,"C37H5.8 hsp-6 expression, induction",1.74 fold
same,"C49G7.5 irg-2 expression, induction",3.91 fold
same,"F08F8.5 numr-1 expression, induction",1.76 fold
same,"F08H9.4 expression, induction",1.05 fold
same,"F14F9.3 expression, induction",6.65 fold
same,"F22B5.4 expression, induction",4.88 fold
same,"F22H10.2 expression, induction",0.89 fold
same,"F26A3.4 expression, induction",1.16 fold
same,"F35E8.11 cdr-1 expression, induction",136.66 fold
same,"F35G2.4 phy-2 expression, induction",1.91 fold
same,"F37B12.2 gcs-1 expression, induction",1.21 fold
same,"F43E2.8 hsp-4 expression, induction",1.31 fold
same,"F44E5.5 expression, induction",0.94 fold
same,"F49F1.6 expression, induction",3.06 fold
same,"F49F1.7 expression, induction",27.43 fold
same,"F49H6.13 expression, induction",1.54 fold
same,"F54B8.4 expression, induction",5.05 fold
same,"F55G11.2 expression, induction",2.13 fold
same,"F59A7.1 clec-206 expression, induction",56.72 fold
same,"F59B10.4 expression, induction",3.99 fold
same,"H12D21.1 nspa-1 expression, induction",0.84 fold
same,"H23N18.1 ugt-13 expression, induction",7.19 fold
same,"H23N18.3 ugt-8 expression, induction",35.45 fold
same,"K05B2.4 expression, induction",25.19 fold
same,"K08F4.7 gst-4 expression, induction",1.42 fold
same,"K09A9.1 nipi-3 expression, induction",2.18 fold
same,"K10D11.2 expression, induction",2.89 fold
same,"K10G4.3 expression, induction",3.15 fold
same,"R03D7.6 gst-5 expression, induction",21.05 fold
same,"R08H2.1 dhs-23 expression, induction",243.00 fold
same,"R10E8.3 expression, induction",1.97 fold
same,"T19D12.3 expression, induction",1.91 fold
same,"T19H12.1 ugt-9 expression, induction",8.16 fold
same,"T21E8.1 pgp-6 expression, induction",3.69 fold
same,"T22B7.3 expression, induction",1.08 fold
same,"T24C4.4 expression, induction",1.30 fold
same,"T24E12.5 expression, induction",2.60 fold
same,"T27E4.3 hsp-16.48 expression, induction",0.91 fold
same,"T27E4.8 hsp-16.1 expression, induction",0.90 fold
same,"T27F6.8 expression, induction",3.28 fold
same,"T28C12.4 expression, induction",8.72 fold
same,"W02D9.10 expression, induction",0.89 fold
same,"Y22D7AL.5 hsp-60 expression, induction",0.89 fold
same,"Y38E10A.15 nspe-7 expression, induction",1.82 fold
same,"Y46H3A.2 hsp-16.41 expression, induction",0.62 fold
same,"Y46H3A.3 hsp-16.2 expression, induction",0.79 fold
same,"Y56A3A.33 expression, induction",1.72 fold
same,"Y58A7A.5 expression, induction",2.03 fold
same,"ZC376.7 atfs-1 expression, induction",2.11 fold
same,"ZC443.6 ugt-16 expression, induction",78.74 fold
same,"ZK697.6 gst-21 expression, induction",47.19 fold
